From paper PMC6941952, “A homogeneous bioluminescent immunoassay to probe cellular signaling pathway regulation” (Communications Biology, 2020)

Tested on: phospho-IκBα (Ser32)
Test: NanoBiT cell-based immunoassay, phosphorylated IκBα in MCF-7 cells
Design: species or system human
Details: for Raw data / Subtract reagent background: TNF
Method: Prior to NanoBiT Cell-Based Immunoassay, 50,000 cells were seeded in 160 µl of complete growth media per well of a 96-well plate and incubated overnight. The cells were checked under microscope and it was determined that 50,000 cells per well in 96-well plate is under 90% confluency for all cells tested. If necessary, the cell culture media were replaced with serum-free media after the cells were stably adherent on the plate and incubated overnight. To treat cells with activators or inhibitors, medium was changed to 30 µl of medium containing inhibitors. If activation of a specific pathway is needed, the cells were stimulated with 10 µl of medium containing activators. To lyse the cells, 10 µl of lysis buffer containing 0.1% digitonin diluted in 1X immunoassay buffer with protease and phosphatase inhibitors was added and the plates were mixed vigorously for 20 min. Then, 50 µl of an antibody mix containing two primary antibodies against the target protein and NanoBiT detecting antibodies (0.3 µl each per well), diluted in 1X immunoassay buffer was added to the lysates. The plates were incubated at 23 °C for 90 min, followed by the addition of 25 µl of Nano-Glo® reagent consisting of Nano-Glo® Luciferase Assay Substrate mixed with 1X immunoassay buffer. Luminescence was measured using a plate-reading luminometer.
In all, 50,000 MCF-7 cells were seeded in 160 µl complete growth medium per well of a 96-well plate and incubated overnight. Half of the cells were treated with 50 ng per ml TNFα and half with vehicle. Cells were lysed as described above and a mixture of NanoBiT secondary antibodies with primary antibodies at the matrix concentrations described in Fig. 2a were added. After 90 min incubation, the Nano-Glo® reagent was added to the reactions as described above and luminescence was measured using a plate-reading luminometer.
Single dose or dose response inhibitor treatments were performed prior to activation of the pathways as follows. For IκBα, the cells were treated in 30 µl medium with IKK16 or MG132 for 60 min before the addition of 10 µl of DMEM containing appropriate concentration of TNFα. To measure phosphorylation of AKT or STAT3, the corresponding NanoBiT immunoassays were developed with MCF-7 or A431 cells, respectively, according the same scheme used to develop the IκBα assay using the primary antibodies for AKT and STAT3 described in the reagents section. For the AKT assay, MCF-7 cells were incubated overnight in phenol-red free DMEM medium (Gibco #21063-029) without serum. Treatment with LY294002 was performed in 30 µl medium and cells were incubated for 60 min before the addition of 1 µM Insulin. To measure STAT3 phosphorylation, A431 cells were incubated overnight in DMEM medium without serum. […] After addition of the stimulators, the cells were incubated for additional times as follows. IκBα phosphorylation and degradation analyses required both time courses and single time points as described in figures. […] The NanoBiT immunoassay protocol was followed as described above.
All 96-well assay plates were read using a GloMax® 96 Microplate Luminometer from Promega. The instrument was set to 0.5 s integration time. In order to obtain net change of signal, the reagent background values (signal from the well containing all reagent except primary antibodies) were subtracted from the sample values. To plot and analyze the data, Microsoft Excel and GraphPad Prism® Software were used. IC50 values were determined by using a nonlinear regression fit to a sigmoidal dose response (variable slope).

[1] = plate #1, IkB Ab #1 75 ng/ml, P-IkB Ab #1 150 ng/ml
[2] = plate #1, IkB Ab #1 75 ng/ml, P-IkB Ab #1 300 ng/ml
[3] = plate #1, IkB Ab #1 75 ng/ml, P-IkB Ab #1 600 ng/ml
[4] = plate #1, IkB Ab #1 75 ng/ml, P-IkB Ab #1 1200 ng/ml
[5] = plate #1, IkB Ab #1 150 ng/ml, P-IkB Ab #1 75 ng/ml
[6] = plate #1, IkB Ab #1 150 ng/ml, P-IkB Ab #1 150 ng/ml
[7] = plate #1, IkB Ab #1 150 ng/ml, P-IkB Ab #1 300 ng/ml
[8] = plate #1, IkB Ab #1 150 ng/ml, P-IkB Ab #1 600 ng/ml
[9] = plate #1, IkB Ab #1 150 ng/ml, P-IkB Ab #1 1200 ng/ml
[10] = plate #1, IkB Ab #1 300 ng/ml, P-IkB Ab #1 75 ng/ml
[11] = plate #1, IkB Ab #1 300 ng/ml, P-IkB Ab #1 150 ng/ml
[12] = plate #1, IkB Ab #1 300 ng/ml, P-IkB Ab #1 300 ng/ml
[13] = plate #1, IkB Ab #1 300 ng/ml, P-IkB Ab #1 600 ng/ml
[14] = plate #1, IkB Ab #1 300 ng/ml, P-IkB Ab #1 1200 ng/ml
[15] = plate #1, IkB Ab #1 600 ng/ml, P-IkB Ab #1 75 ng/ml
[16] = plate #1, IkB Ab #1 600 ng/ml, P-IkB Ab #1 150 ng/ml
[17] = plate #1, IkB Ab #1 600 ng/ml, P-IkB Ab #1 300 ng/ml
[18] = plate #1, IkB Ab #1 600 ng/ml, P-IkB Ab #1 600 ng/ml
[19] = plate #1, IkB Ab #1 600 ng/ml, P-IkB Ab #1 1200 ng/ml
[20] = plate #1, IkB Ab #1 1200 ng/ml, P-IkB Ab #1 75 ng/ml
[21] = plate #1, IkB Ab #1 1200 ng/ml, P-IkB Ab #1 150 ng/ml
[22] = plate #1, IkB Ab #1 1200 ng/ml, P-IkB Ab #1 300 ng/ml
[23] = plate #1, IkB Ab #1 1200 ng/ml, P-IkB Ab #1 600 ng/ml
[24] = plate #1, IkB Ab #1 1200 ng/ml, P-IkB Ab #1 1200 ng/ml
[25] = plate #2, IkB Ab #2 75 ng/ml, P-IkB Ab #1 75 ng/ml

Substance: TNFα
- Raw data [1]: 38800
- Subtract reagent background [1]: 19890
- Raw data [2]: 36190
- Subtract reagent background [2]: 17280
- Raw data [3]: 29500
- Subtract reagent background [3]: 10590
- Raw data [4]: 23430
- Subtract reagent background [4]: 4520
- Raw data [5]: 31770
- Subtract reagent background [5]: 12860
- Raw data [6]: 37260
- Subtract reagent background [6]: 18350
- Raw data [7]: 34880
- Subtract reagent background [7]: 15970
- Raw data [8]: 27610
- Subtract reagent background [8]: 8700
- Raw data [9]: 22810
- Subtract reagent background [9]: 3900
- Raw data [10]: 28900
- Subtract reagent background [10]: 9990
- Raw data [11]: 32520
- Subtract reagent background [11]: 13610
- Raw data [12]: 32030
- Subtract reagent background [12]: 13120
- Raw data [13]: 24980
- Subtract reagent background [13]: 6070
- Raw data [14]: 21690
- Subtract reagent background [14]: 2780
- Raw data [15]: 24730
- Subtract reagent background [15]: 5820
- Raw data [16]: 27710
- Subtract reagent background [16]: 8800
- Raw data [17]: 26820
- Subtract reagent background [17]: 7910
- Raw data [18]: 24690
- Subtract reagent background [18]: 5780
- Raw data [19]: 22170
- Subtract reagent background [19]: 3260
- Raw data [20]: 22890
- Subtract reagent background [20]: 3980
- Raw data [21]: 24970
- Subtract reagent background [21]: 6060
- Raw data [22]: 24110
- Subtract reagent background [22]: 5200
- Raw data [23]: 24380
- Subtract reagent background [23]: 5470
- Raw data [24]: 22870
- Subtract reagent background [24]: 3960
- Fold change (TNF-treated /Non-treated) (plate #1, IkB Ab #1 (Mouse) 75 ng/ml, P-IkB Ab #1 (Rabbit) 150 ng/ml): 8.219
- Fold change (TNF-treated /Non-treated) (plate #1, IkB Ab #1 (Mouse) 75 ng/ml, P-IkB Ab #1 (Rabbit) 150 ng/ml, listed as TNF): 8.2
- Fold change (TNF-treated /Non-treated) (plate #1, IkB Ab #1 (Mouse) 75 ng/ml, P-IkB Ab #1 (Rabbit) 300 ng/ml): 4.364
- Fold change (TNF-treated /Non-treated) (plate #1, IkB Ab #1 (Mouse) 75 ng/ml, P-IkB Ab #1 (Rabbit) 300 ng/ml, listed as TNF): 4.4
- Fold change (TNF-treated /Non-treated) (plate #1, IkB Ab #1 (Mouse) 75 ng/ml, P-IkB Ab #1 (Rabbit) 600 ng/ml): 2.688
- Fold change (TNF-treated /Non-treated) (plate #1, IkB Ab #1 (Mouse) 75 ng/ml, P-IkB Ab #1 (Rabbit) 600 ng/ml, listed as TNF): 2.7
- Fold change (TNF-treated /Non-treated) (plate #1, IkB Ab #1 (Mouse) 75 ng/ml, P-IkB Ab #1 (Rabbit) 1200 ng/ml): 1.8374
- Fold change (TNF-treated /Non-treated) (plate #1, IkB Ab #1 (Mouse) 75 ng/ml, P-IkB Ab #1 (Rabbit) 1200 ng/ml, listed as TNF): 1.8
- Fold change (TNF-treated /Non-treated) (plate #1, IkB Ab #1 (Mouse) 150 ng/ml, P-IkB Ab #1 (Rabbit) 150 ng/ml): 9.557
- Fold change (TNF-treated /Non-treated) (plate #1, IkB Ab #1 (Mouse) 150 ng/ml, P-IkB Ab #1 (Rabbit) 150 ng/ml, listed as TNF): 9.6
- Fold change (TNF-treated /Non-treated) (plate #1, IkB Ab #1 (Mouse) 150 ng/ml, P-IkB Ab #1 (Rabbit) 300 ng/ml): 4.656
- Fold change (TNF-treated /Non-treated) (plate #1, IkB Ab #1 (Mouse) 150 ng/ml, P-IkB Ab #1 (Rabbit) 300 ng/ml, listed as TNF): 4.7
- Fold change (TNF-treated /Non-treated) (plate #1, IkB Ab #1 (Mouse) 150 ng/ml, P-IkB Ab #1 (Rabbit) 600 ng/ml): 2.797
- Fold change (TNF-treated /Non-treated) (plate #1, IkB Ab #1 (Mouse) 150 ng/ml, P-IkB Ab #1 (Rabbit) 600 ng/ml, listed as TNF): 2.8
- Fold change (TNF-treated /Non-treated) (plate #1, IkB Ab #1 (Mouse) 150 ng/ml, P-IkB Ab #1 (Rabbit) 1200 ng/ml): 0.8904
- Fold change (TNF-treated /Non-treated) (plate #1, IkB Ab #1 (Mouse) 150 ng/ml, P-IkB Ab #1 (Rabbit) 1200 ng/ml, listed as TNF): 0.9
- Fold change (TNF-treated /Non-treated) (plate #1, IkB Ab #1 (Mouse) 300 ng/ml, P-IkB Ab #1 (Rabbit) 150 ng/ml, listed as TNF): 4.1
- Fold change (TNF-treated /Non-treated) (plate #1, IkB Ab #1 (Mouse) 300 ng/ml, P-IkB Ab #1 (Rabbit) 300 ng/ml, listed as TNF): 3.3
- Fold change (TNF-treated /Non-treated) (plate #1, IkB Ab #1 (Mouse) 300 ng/ml, P-IkB Ab #1 (Rabbit) 600 ng/ml, listed as TNF): 1.6
- Fold change (TNF-treated /Non-treated) (plate #1, IkB Ab #1 (Mouse) 300 ng/ml, P-IkB Ab #1 (Rabbit) 1200 ng/ml, listed as TNF): 1.0
- Fold change (TNF-treated /Non-treated) (plate #1, IkB Ab #1 (Mouse) 600 ng/ml, P-IkB Ab #1 (Rabbit) 75 ng/ml, listed as TNF): 4.9
- Fold change (TNF-treated /Non-treated) (plate #1, IkB Ab #1 (Mouse) 600 ng/ml, P-IkB Ab #1 (Rabbit) 150 ng/ml, listed as TNF): 5.1
- Fold change (TNF-treated /Non-treated) (plate #1, IkB Ab #1 (Mouse) 600 ng/ml, P-IkB Ab #1 (Rabbit) 300 ng/ml, listed as TNF): 3.0
- Fold change (TNF-treated /Non-treated) (plate #1, IkB Ab #1 (Mouse) 600 ng/ml, P-IkB Ab #1 (Rabbit) 600 ng/ml, listed as TNF): 2.3
- Fold change (TNF-treated /Non-treated) (plate #1, IkB Ab #1 (Mouse) 600 ng/ml, P-IkB Ab #1 (Rabbit) 1200 ng/ml, listed as TNF): 1.1
- Fold change (TNF-treated /Non-treated) (plate #1, IkB Ab #1 (Mouse) 1200 ng/ml, P-IkB Ab #1 (Rabbit) 75 ng/ml, listed as TNF): 2.5
- Fold change (TNF-treated /Non-treated) (plate #1, IkB Ab #1 (Mouse) 1200 ng/ml, P-IkB Ab #1 (Rabbit) 150 ng/ml, listed as TNF): 3.0
- Fold change (TNF-treated /Non-treated) (plate #1, IkB Ab #1 (Mouse) 1200 ng/ml, P-IkB Ab #1 (Rabbit) 300 ng/ml, listed as TNF): 1.9
- Fold change (TNF-treated /Non-treated) (plate #1, IkB Ab #1 (Mouse) 1200 ng/ml, P-IkB Ab #1 (Rabbit) 600 ng/ml, listed as TNF): 2.0
- Fold change (TNF-treated /Non-treated) (plate #1, IkB Ab #1 (Mouse) 1200 ng/ml, P-IkB Ab #1 (Rabbit) 1200 ng/ml, listed as TNF): 1.8
- Raw data [25]: 20520
- Subtract reagent background [25]: 2000
- Raw data (plate #2, IkB Ab #2 75 ng/ml, P-IkB Ab #1 150 ng/ml): 20690
